Results taken from the supplement of paper PMC11061612.

Key:
Assay in all cases: combination Emax (second highest fraction inhibited in the dose matrix, 72 h); higher = more inhibition; extreme values may be limits of the assay
[1] = test system: AMO-1 (Plasma Cell Myeloma)
Method in brief: (§1)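 Cell lines in DMEM/F12 or RPMI with 10% FBS were plated in 1536-well plates, held 24 hours at 37°C, 5% CO2, then given two-drug dose matrices for 72 hours (DMSO typically 0.2%). Viability was read by CellTiter-Glo 2.0 luminescence and scaled as inhibition from 0 (vehicle wells) to 1 (blank wells). Combination Emax is the second-highest inhibition in the matrix; Bliss excess is observed combination effect minus expected EA + EB − EA·EB, EA and EB being single-agent effects.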

[2] = test system: C-4-I (Cervical Carcinoma)
Method in brief: as §1

[3] = test system: Ca9-22 (Head and Neck Carcinoma)
Method in brief: as §1

[4] = test system: Caov-4 (Ovarian Carcinoma)
Method in brief: as §1

[5] = test system: D-263MG (Glioblastoma)
Method in brief: as §1

[6] = test system: EFM-19 (Breast Carcinoma)
Method in brief: as §1

[7] = test system: LU-65 (Non-Small Cell Lung Carcinoma)
Method in brief: as §1

[8] = test system: MIA-PaCa-2 (Pancreatic Carcinoma)
Method in brief: as §1

[9] = test system: MLMA (Other Blood Carcinomas)
Method in brief: as §1

[10] = test system: NEC8 (Other Solid Carcinomas)
Method in brief: as §1

[11] = test system: NUGC-3 (Gastric Carcinoma)
Method in brief: as §1

[12] = test system: OSC-20 (Oral Cavity Carcinoma)
Method in brief: as §1

[13] = test system: PANC-04-03 (Pancreatic Carcinoma)
Method in brief: as §1

[14] = test system: PWR-1E (Non-Cancerous)
Method in brief: as §1

[15] = test system: SU8686 (Pancreatic Carcinoma)
Method in brief: as §1

[16] = test system: SW13 (Other Solid Carcinomas)
Method in brief: as §1

[17] = test system: TGW (Neuroblastoma)
Method in brief: as §1

[18] = test system: TK10 (Kidney Carcinoma)
Method in brief: as §1

[19] = test system: VA-ES-BJ (Other Solid Carcinomas)
Method in brief: as §1

[20] = test system: YH-13 (Glioblastoma)
Method in brief: as §1

| SMILES | combination Emax [1] | combination Emax [2] | combination Emax [3] | combination Emax [4] | combination Emax [5] | combination Emax [6] | combination Emax [7] | combination Emax [8] | combination Emax [9] | combination Emax [10] | combination Emax [11] | combination Emax [12] | combination Emax [13] | combination Emax [14] | combination Emax [15] | combination Emax [16] | combination Emax [17] | combination Emax [18] | combination Emax [19] | combination Emax [20] |
| --- | --- | --- | --- | --- | --- | --- | --- | --- | --- | --- | --- | --- | --- | --- | --- | --- | --- | --- | --- | --- |
| CN(C)CCCOc1ccc(-c2ccc3ncc4c(c3c2)n(C2CCOCC2)c(=O)n4C)cn1 [AZD0156] + C=CCn1c(=O)c2cnc(Nc3ccc(N4CCN(C)CC4)cc3)nc2n1-c1cccc(C(C)(C)O)n1 [AZD1775] (first compound max 1 µM, partner max 1 µM) | 0.827 | 0.755 | 0.721 | 0.753 | 0.38 | 0.607 | 0.639 | 0.595 | 0.908 | 0.336 | 0.552 | 0.233 | 0.471 | 0.678 | 0.208 | 0.147 | 0.769 | 0.353 | 0.381 | 0.352 |
| CN(C)CCCOc1ccc(-c2ccc3ncc4c(c3c2)n(C2CCOCC2)c(=O)n4C)cn1 [AZD0156] + CCN(CCO)CCCOc1ccc2c(Nc3cc(CC(=O)Nc4cccc(F)c4)[nH]n3)ncnc2c1 [AZD2811] (first compound max 1 µM, 7x7, partner max 1 µM) | 0.312 | 0.147 | 0.127 | 0.19 | 0.329 | 0.383 | 0.281 | 0.376 | 0.239 | 0.146 | 0.322 | 0.353 | 0.0564 | 0.626 | 0.0439 | 0.407 | 0.356 | 0.166 | 0.245 | 0.348 |
| CN(C)CCCOc1ccc(-c2ccc3ncc4c(c3c2)n(C2CCOCC2)c(=O)n4C)cn1 [AZD0156] + C[C@@H]1COCCN1C2=NC(=NC(=C2)C3(CC3)[S@](=N)(=O)C)C4=C5C=CNC5=NC=C4 [AZD6738] (first compound max 1 µM, 7x7, partner max 10 µM) | 0.908 | 0.872 | 0.925 | 0.744 | 0.857 | 0.345 | 0.76 | 0.605 | 0.79 | 0.877 | 0.727 | 0.334 | 0.615 | 0.911 | 0.365 | 0.469 | 0.833 | 0.695 | 0.699 | 0.578 |
| CN(C)CCCOc1ccc(-c2ccc3ncc4c(c3c2)n(C2CCOCC2)c(=O)n4C)cn1 [AZD0156] + O=C(c1cc(Cc2n[nH]c(=O)c3ccccc23)ccc1F)N1CCN(C(=O)C2CC2)CC1 [Olaparib] (first compound max 3 µM, partner max 3 µM) | 0.481 | 0.362 | 0.465 | 0.154 | 0.196 | 0.533 | 0.268 | 0.226 | 0.363 | 0.277 | 0.346 | 0.245 | 0.32 | 0.684 | 0.146 | 0.421 | 0.413 | 0.197 | 0.284 | 0.453 |
| C=CCn1c(=O)c2cnc(Nc3ccc(N4CCN(C)CC4)cc3)nc2n1-c1cccc(C(C)(C)O)n1 [AZD1775] + C1CN(CCC1(C(=O)N[C@@H](CCO)C2=CC=C(C=C2)Cl)N)C3=NC=NC4=C3C=CN4 [Capivasertib] (first compound max 3 µM, partner max 3 µM) | 0.945 | 0.97 | 0.921 | 0.754 | 0.696 | 0.71 | 0.815 | 0.585 | 0.894 | 0.985 | 0.715 | 0.619 | 0.571 | 0.988 | 0.202 | 0.586 | 0.889 | 0.503 | 0.645 | 0.519 |
| C=CCn1c(=O)c2cnc(Nc3ccc(N4CCN(C)CC4)cc3)nc2n1-c1cccc(C(C)(C)O)n1 [AZD1775] + C[C@@H]1COCCN1C2=NC(=NC(=C2)C3(CC3)[S@](=N)(=O)C)C4=C5C=CNC5=NC=C4 [AZD6738] (first compound max 1 µM, partner max 10 µM) | 0.922 | 0.93 | 0.957 | 0.902 | 0.908 | 0.672 | 0.884 | 0.956 | 0.935 | 0.932 | 0.834 | 0.401 | 0.63 | 0.913 | 0.384 | 0.636 | 0.97 | 0.698 | 0.822 | 0.69 |
| C=CCn1c(=O)c2cnc(Nc3ccc(N4CCN(C)CC4)cc3)nc2n1-c1cccc(C(C)(C)O)n1 [AZD1775] + O=C(c1cc(Cc2n[nH]c(=O)c3ccccc23)ccc1F)N1CCN(C(=O)C2CC2)CC1 [Olaparib] (first compound max 1 µM, partner max 10 µM) | 0.728 | 0.792 | 0.88 | 0.779 | 0.447 | 0.639 | 0.609 | 0.737 | 0.882 | 0.284 | 0.547 | 0.289 | 0.495 | 0.562 | 0.182 | 0.259 | 0.821 | 0.455 | 0.307 | 0.428 |
| CCN(CCO)CCCOc1ccc2c(Nc3cc(CC(=O)Nc4cccc(F)c4)[nH]n3)ncnc2c1 [AZD2811] + C=CCn1c(=O)c2cnc(Nc3ccc(N4CCN(C)CC4)cc3)nc2n1-c1cccc(C(C)(C)O)n1 [AZD1775] (first compound max 1 µM, partner max 1 µM) | 0.718 | 0.771 | 0.771 | 0.821 | 0.51 | 0.467 | 0.56 | 0.727 | 0.981 | 0.329 | 0.539 | 0.369 | 0.445 | 0.87 | 0.177 | 0.463 | 0.761 | 0.33 | 0.356 | 0.423 |
| CCN(CCO)CCCOc1ccc2c(Nc3cc(CC(=O)Nc4cccc(F)c4)[nH]n3)ncnc2c1 [AZD2811] + C[C@@H]1COCCN1C2=NC(=NC(=C2)C3(CC3)[S@](=N)(=O)C)C4=C5C=CNC5=NC=C4 [AZD6738] (first compound max 1 µM, 7x7, partner max 10 µM) | 0.859 | 0.841 | 0.903 | 0.784 | 0.619 | 0.355 | 0.668 | 0.644 | 0.684 | 0.649 | 0.697 | 0.449 | 0.545 | 0.908 | 0.248 | 0.537 | 0.706 | 0.602 | 0.696 | 0.54 |
| CCN(CCO)CCCOc1ccc2c(Nc3cc(CC(=O)Nc4cccc(F)c4)[nH]n3)ncnc2c1 [AZD2811] + O=C(c1cc(Cc2n[nH]c(=O)c3ccccc23)ccc1F)N1CCN(C(=O)C2CC2)CC1 [Olaparib] (first compound max 1 µM, 7x7, partner max 10 µM) | 0.354 | 0.303 | 0.195 | 0.19 | 0.418 | 0.322 | 0.265 | 0.469 | 0.223 | 0.13 | 0.274 | 0.382 | 0.227 | 0.538 | 0.145 | 0.364 | 0.532 | 0.189 | 0.251 | 0.474 |
| CN(CCO)CC[C@H](CSc1ccccc1)Nc1ccc(S(=O)(=O)NC(=O)c2ccc(N3CCC([C@@H](O)c4ccccc4-c4ccc(Cl)cc4)CC3)cc2)cc1S(=O)(=O)C(F)(F)F [AZD4320] + CN(C)CCCOc1ccc(-c2ccc3ncc4c(c3c2)n(C2CCOCC2)c(=O)n4C)cn1 [AZD0156] (first compound max 1 µM, 7x7, partner max 1 µM) | 0.0251 | 0.145 | 0.0929 | 0.276 | 0.0929 | 0.797 | 0.307 | 0.141 | 0.374 | 0.203 | 0.151 | 0.106 | 0.192 | 0.162 | 0.0423 | 0.14 | 0.963 | 0.375 | 0.164 | 0.134 |
| COc1nnc2ccc(N3CCC(c4ccc(OCCN5CCN(C)C(=O)[C@H]5C)cc4)CC3)nn12 [AZD5153] + C=CCn1c(=O)c2cnc(Nc3ccc(N4CCN(C)CC4)cc3)nc2n1-c1cccc(C(C)(C)O)n1 [AZD1775] (first compound max 1 µM, partner max 1 µM) | 0.978 | 0.838 | 0.672 | 0.864 | 0.34 | 0.573 | 0.799 | 0.882 | 0.938 | 0.913 | 0.715 | 0.284 | 0.484 | 0.886 | 0.171 | 0.561 | 0.674 | 0.604 | 0.724 | 0.592 |
| COc1nnc2ccc(N3CCC(c4ccc(OCCN5CCN(C)C(=O)[C@H]5C)cc4)CC3)nn12 [AZD5153] + CC1(C)CCC(CN2CCN(c3ccc(C(=O)NS(=O)(=O)c4ccc(NCC5CCOCC5)c([N+](=O)[O-])c4)c(Oc4cnc5[nH]ccc5c4)c3)CC2)=C(c2ccc(Cl)cc2)C1 [Venetoclax] (first compound max 1 µM, 7x7, partner max 1 µM) | 0.907 | 0.514 | 0.66 | 0.543 | 0.369 | 0.359 | 0.458 | 0.878 | 0.912 | 0.831 | 0.464 | 0.129 | 0.445 | 0.61 | 0.0794 | 0.384 | 0.798 | 0.594 | 0.5 | 0.656 |
